Assay in all cases: Ellman assay, […] nm
Assay type in all cases: biochemical
For orientation: Ellman's reagent forms a yellow product with free thiols.

Test [1] has as its target T1, hAChE (human acetylcholinesterase) (Homo sapiens, UniProt P22303).
T1 construct: gene ACHE

Test [2] concerns the target T2, hBChE (human butyrylcholinesterase) (Homo sapiens, UniProt P06276).
T2 construct: gene BCHE

The target in test [3] is T2, hBChE (human butyrylcholinesterase). The source holds these as a separate data set.

Where two headings read alike, the source gives them in different places.

T1 sequence (P22303 32-614): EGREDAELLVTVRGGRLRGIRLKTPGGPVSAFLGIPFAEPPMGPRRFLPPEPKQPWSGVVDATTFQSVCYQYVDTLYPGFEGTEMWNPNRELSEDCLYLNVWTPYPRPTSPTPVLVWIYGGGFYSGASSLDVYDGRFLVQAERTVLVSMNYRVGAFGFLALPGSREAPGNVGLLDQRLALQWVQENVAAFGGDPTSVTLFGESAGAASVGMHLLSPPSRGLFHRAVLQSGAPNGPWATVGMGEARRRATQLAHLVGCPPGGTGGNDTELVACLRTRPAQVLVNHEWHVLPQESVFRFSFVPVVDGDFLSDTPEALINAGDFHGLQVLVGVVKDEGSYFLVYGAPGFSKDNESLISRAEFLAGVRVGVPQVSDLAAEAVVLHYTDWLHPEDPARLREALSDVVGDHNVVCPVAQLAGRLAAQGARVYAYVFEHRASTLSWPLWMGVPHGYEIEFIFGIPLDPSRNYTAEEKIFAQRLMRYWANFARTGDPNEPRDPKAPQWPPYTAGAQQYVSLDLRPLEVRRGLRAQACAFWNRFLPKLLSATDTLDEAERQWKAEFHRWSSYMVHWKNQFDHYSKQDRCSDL
T2 sequence (P06276 29-602): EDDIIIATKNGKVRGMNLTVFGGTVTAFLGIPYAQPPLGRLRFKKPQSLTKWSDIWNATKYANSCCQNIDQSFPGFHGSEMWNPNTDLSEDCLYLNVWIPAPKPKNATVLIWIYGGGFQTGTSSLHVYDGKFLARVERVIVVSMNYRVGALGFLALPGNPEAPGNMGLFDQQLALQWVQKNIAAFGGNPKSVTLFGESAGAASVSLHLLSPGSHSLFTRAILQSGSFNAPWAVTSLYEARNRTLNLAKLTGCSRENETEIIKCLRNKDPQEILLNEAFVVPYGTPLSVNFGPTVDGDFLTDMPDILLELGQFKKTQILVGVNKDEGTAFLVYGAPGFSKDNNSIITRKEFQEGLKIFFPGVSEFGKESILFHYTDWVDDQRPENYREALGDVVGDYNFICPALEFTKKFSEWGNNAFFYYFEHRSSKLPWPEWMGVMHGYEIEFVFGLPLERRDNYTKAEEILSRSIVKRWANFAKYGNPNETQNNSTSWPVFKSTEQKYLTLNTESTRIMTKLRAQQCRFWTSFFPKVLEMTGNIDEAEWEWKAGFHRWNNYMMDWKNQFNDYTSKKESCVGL

`O=C(F)N(Cc1ccccc1)Cc1ccccc1` [3b, Dibenzylcarbamic Fluoride]: the figures for the IC50 in test [1] (read-out: hAChE) and in test [2] (read-out: hBChE) were 2.2 ± 0.27 µM and 69.6 ± 4 nM, respectively.

`O=C(F)N1CCC(Cc2ccccc2)CC1` [3g, 4-Benzylpiperidine-1-carbonyl Fluoride]: the values for the IC50 in test [1] (read-out: hAChE) and in test [2] (read-out: hBChE) were 0.554 ± 0.079 µM and 2.78 ± 0.15 nM, respectively.

Regarding `O=C(F)N1CCN(c2ccccc2F)CC1` [3j, 4-(2-Fluorophenyl)piperazine-1-carbonyl Fluoride], the IC50 in test [1] amounted to 10.7 µM; in test [2] it was 656 ± 32 nM.

In the case of `O=C(F)N1CCc2ccccc2C1` [3f, 3,4-Dihydroisoquinoline-2(1H)-carbonyl Fluoride], the IC50 in test [1] (read-out: hAChE) came out at 22.6 µM; in test [2] (read-out: hBChE) it was 707 ± 122 nM.

For `CCCCN(Cc1ccccc1)C(=O)F` [3c, Benzyl(butyl)carbamic Fluoride], the IC50 in test [1] came to 4.48 ± 1.14 µM; in test [2], 2430 ± 400 nM.

Regarding `O=C(F)N1CCc2ccccc21` [3d, Indoline-1-carbonyl Fluoride], the IC50 in test [1] (read-out: hAChE) stood at 4.62 ± 1.15 µM. In test [3], the activity at 100 µM was found to be 56.2 ± 3.7%.

As to `CN(Cc1ccccc1)C(=O)F` [3a, Benzyl(methyl)carbamic Fluoride], the IC50 came out at 5.65 ± 0.947 µM in test [1] (read-out: hAChE) and 156 ± 9 nM in test [2] (read-out: hBChE).

`O=C(F)N1CCC(c2c[nH]c3ccccc23)CC1` [3h, 4-(1H-Indol-3-yl)piperidine-1-carbonyl Fluoride]: the IC50 in test [1] was 18.7 µM; in test [2] it was 23.5 ± 4.6 nM.

Regarding `C#CCCCCCCCCCN(C)C(=O)F` [3i, Methyl(undec-10-yn-1-yl)carbamic Fluoride], the IC50 amounted to 5.07 ± 1.15 µM in test [1] and 197 ± 36 nM in test [2].

Regarding `O=C(F)N1Cc2ccccc2C1` [3e, Isoindoline-2-carbonyl Fluoride], the IC50 in test [1] (read-out: hAChE) turned out to be 103 µM; in test [2] (read-out: hBChE), 32200 nM.

Consider `CN(C(=O)F)c1cccc2cc[nH]c12` [3k, (1H-Indol-7-yl)(methyl)carbamic Fluoride], for which the IC50 was 0.151 ± 0.008 µM in test [1] (read-out: hAChE) and 5.56 ± 0.83 nM in test [2] (read-out: hBChE).

The values above are taken from publication PMC11866180, “Facile Synthesis of Carbamoyl Fluorides viaN-Carbamoylimidazole Activation” (ACS Omega, 2025).
